Test results published in patent US10681908B2, “Molecules having pesticidal utility, and intermediates, compositions, and processes, related thereto” (Dow AgroSciences LLC, priority 2016, dated 2020).
Like-named read-outs stand apart in the source and are kept apart here.

Columns and labels:
Format in all cases: in vivo
[1] = test system: Yellow Fever Mosquito (Aedes aegypti, AEDSAE); conditions: about 1 day-old larvae, 3 days, room temperature, scored on mortality
Method: Example C: Bioassays on Yellow Fever Mosqurro (Aedes aegypti, AEDSAE) (“YFM”)
Certain molecules disclosed in this document were tested against YFM using procedures described in the following paragraph. In the reporting of the results, the “GPA & YFM Rating Table” was used (See Table Section).
Master plates containing 400 μg of a molecule dissolved in 100 μL of dimethyl sulfoxide (DMSO) (equivalent to a 4000 ppm solution) are used. A master plate of assembled molecules contains 15 μL per well. To this plate, 135 μL of a 90:10 water:acetone mixture is added to each well. A robot (Biomek® NXP Laboratory Automation Workstation) is programmed to dispense 15 μL aspirations from the master plate into an empty 96-well shallow plate (“daughter” plate). There are 6 reps (“daughter” plates) created per master. The created daughter plates are then immediately infested with YFM larvae.
The day before plates are to be treated, mosquito eggs are placed in Millipore water containing liver powder to begin hatching (4 g. into 400 mL). After the daughter plates are created using the robot, they are infested with 220 μL of the liver powder/larval mosquito mixture (about 1 day-old larvae). After plates are infested with mosquito larvae, a non-evaporative lid is used to cover the plate to reduce drying. Plates are held at room temperature for 3 days prior to grading. After 3 days, each well is observed and scored based on mortality. The results are indicated in the table entitled “Table ABC: Biological Results” (See Table Section).

[2] = test system: Beet Armyworm (Spodoptera exigua, LAPHEG); experiment: Bioassay on Beet Armyworm (BAW), 128-well diet tray assay; conditions: for mortality at 50 µg/cm2: 168 h, 50 μg/cm^2 on artificial diet, second instar larvae, five to seven days, 25° C., read-out: BAW % Control (or Mortality) rating
Procedure, shortened: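 Mortality of second-instar larvae (one to five per well) was scored after five to seven days at 25 °C under 14:10 light-dark and averaged across eight wells. Each well's diet had received 50 μg/cm^2 test molecule from a 90:10 acetone-water solution, allowed to dry before infestation.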

[3] = test system: Cabbage Looper (Trichoplusia ni, TRIPNI); experiment: Bioassay on Cabbage Looper (CL), 128-well diet tray assay; conditions: for mortality at 50 µg/cm2: 168 h, 50 μg/cm^2 on artificial diet, second instar larvae, five to seven days, 25° C., read-out: CL % Control (or Mortality) rating
Procedure, shortened: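 Percent mortality, averaged over eight wells, scored after five to seven days at 25° C. under 14:10 light-dark. Each well held 1–5 second-instar larvae on artificial diet treated with 50 μg/cm^2 test molecule applied in 90:10 acetone-water and dried.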

| Compound | mortality at 50 µg/cm2 [2] [%] | mortality at 50 µg/cm2 [3] [%] | also measured |
| --- | --- | --- | --- |
| Cc1cc(C(/C=C(\F)c2ccc(C(=O)N[C@H](C)CS(=O)(=O)CC(F)(F)F)c(C(F)(F)F)c2)C(F)(F)F)cc(C)c1Cl (stereo partly drawn) [F35, 4-((Z)-3-(4-Chloro-3,5-dimethylphenyl)-1,4,4,4-tetrafluorobut-1-en-1-yl)-N—((R)-1-((2,2,2-trifluoroethyl)sulfonyl)propan-2-yl)-2-(trifluoromethyl)benzamide] | 50 to 100 | 50 to 100 | YFM % Control (or Mortality) rating [1]: A (80-100) |
| CCS(=O)(=O)C[C@@H](C)NC(=O)c1ccc(/C(F)=C/C(c2cc(Br)c(Cl)c(Br)c2)C(F)(F)F)cc1C(F)(F)F (stereo partly drawn) [F56, 4-((Z)-3-(3,5-Dibromo-4-chlorophenyl)-1,4,4,4-tetrafluorobut-1-en-1-yl)-N—((R)-1-(ethylsulfonyl)propan-2-yl)-2-(trifluoromethyl)benzamide] |  |  | YFM % Control (or Mortality) rating [1]: A (80-100) |
| C[C@H](CS(=O)(=O)CC(F)(F)F)NC(=O)c1ccc(/C(F)=C/C(c2ccc(F)c(C(F)(F)F)c2)C(F)(F)F)cc1C(F)(F)F (stereo partly drawn) [F77, 4-((Z)-1,4,4,4-Tetrafluoro-3-(4-fluoro-3-(trifluoromethyl)phenyl)but-1-en-1-yl)-N—((R)-1-((2,2,2-trifluoroethyl)sulfonyl)propan-2-yl)-2-(trifluoromethyl)benzamide] | 50 to 100 | 50 to 100 |  |
| C[C@H](C[S+]([O-])CC(F)(F)F)NC(=O)c1ccc(/C(F)=C/C(c2cc(Cl)c(Cl)c(Cl)c2)C(F)(F)F)cc1Br (stereo partly drawn) [F9, 2-Bromo-4-((Z)-1,4,4,4-tetrafluoro-3-(3,4,5-trichlorophenyl)but-1-en-1-yl)-N-((2R)-1-((2,2,2-trifluoroethyl)sulfinyl)propan-2-yl)benzamide] | 50 to 100 | 50 to 100 |  |
| C[C@H](CS(=O)(=O)CC(F)(F)F)NC(=O)c1ccc(/C(F)=C/C(c2cc(Cl)c(Cl)c(Cl)c2)C(C)(F)F)cc1 (stereo partly drawn) [FC1, 4-((Z)-1,4,4-Trifluoro-3-(3,4,5-trichlorophenyl)pent-1-en-1-yl)-N—((R)-1-((2,2,2-trifluoroethyl)sulfonyl)propan-2-yl)benzamide] |  |  | mortality at 0.05 µg/cm2 ([2]; 0.05 μg/cm^2, read-out: BAW Percent control (or mortality)): 0%; mortality at 0.5 µg/cm2 ([2]; 0.5 μg/cm^2, read-out: BAW Percent control (or mortality)): 20%; mortality at 5 µg/cm2 ([2]; 5 μg/cm^2, read-out: BAW Percent control (or mortality)): 100%; mortality at 0.05 µg/cm2 ([3]; 0.05 μg/cm^2, read-out: CL Percent control (or mortality)): 0%; mortality at 0.5 µg/cm2 ([3]; 0.5 μg/cm^2, read-out: CL Percent control (or mortality)): 81%; mortality at 5 µg/cm2 ([3]; 5 μg/cm^2, read-out: CL Percent control (or mortality)): 100% |
| O=C(NCC[S+]([O-])CC(F)(F)F)c1ccc(/C(F)=C/C(c2cc(Cl)c(Cl)c(Cl)c2)C(F)(F)F)cc1C(F)(F)F (stereo not shown) [F50, (Z)-4-(1,4,4,4-tetrafluoro-3-(3,4,5-trichlorophenyl)but-1-en-1-yl)-N-(2-((2,2,2-trifluoroethyl)sulfinyl)ethyl)-2-(trifluoromethyl)benzamide] | 50 to 100 | 50 to 100 |  |
| C[C@H](CSCCF)NC(=O)c1ccc(/C(F)=C/C(c2cc(Cl)c(Cl)c(Cl)c2)C(F)(F)F)cc1C(F)(F)F (stereo partly drawn) [F84, N—((R)-1-((2-Fluoroethyl)thio)propan-2-yl)-4-((Z)-1,4,4,4-tetrafluoro-3-(3,4,5-trichlorophenyl)but-1-en-1-yl)-2-(trifluoromethyl)benzamide] | 50 to 100 | 50 to 100 |  |
| C[C@H](CS(=O)(=O)CC(F)(F)F)NC(=O)c1ccc(/C(F)=C/C(c2cc(Cl)c(Cl)c(C(F)F)c2)C(F)(F)F)cc1C(F)(F)F (stereo partly drawn) [F70, 4-((Z)-3-(3,4-dichloro-5-(difluoromethyl)phenyl)-1,4,4,4-tetrafluorobut-1-en-1-yl)-N—((R)-1-((2,2,2-trifluoroethyl)sulfonyl)propan-2-yl)-2-(trifluoromethyl)benzamide] | 50 to 100 | 50 to 100 |  |
| C[C@H](CS(=O)(=O)CC(F)(F)F)NC(=O)c1ccc(/C(F)=C/C(c2cc(F)cc(Cl)c2)C(F)(F)F)cc1C(F)(F)F (stereo partly drawn) [F126, 4-((Z)-3-(3-Chloro-5-fluorophenyl)-1,4,4,4-tetrafluorobut-1-en-1-yl)-N—((R)-1-((2,2,2-trifluoroethyl)sulfonyl)propan-2-yl)-2-(trifluoromethyl)benzamide] | 50 to 100 | 50 to 100 |  |
| C[C@H](CSCC(C)(F)F)NC(=O)c1ccc(/C(F)=C/C(c2cc(Cl)c(Cl)c(Cl)c2)C(F)(F)F)cc1C(F)(F)F (stereo partly drawn) [F113, N—((R)-1-((2,2-Difluoropropyl)thio)propan-2-yl)-4-((Z)-1,4,4,4-tetrafluoro-3-(3,4,5-trichlorophenyl)but-1-en-1-yl)-2-(trifluoromethyl)benzamide] | 50 to 100 | 50 to 100 |  |
| C=Cc1cc(C(/C=C(\F)c2ccc(C(=O)N[C@H](C)CS(=O)(=O)CC(F)(F)F)c(C(F)(F)F)c2)C(F)(F)F)cc(Cl)c1Cl (stereo partly drawn) [F73, 4-((Z)-3-(3,4-dichloro-5-vinylphenyl)-1,4,4,4-tetrafluorobut-1-en-1-yl)-N—((R)-1-((2,2,2-trifluoroethyl)sulfonyl)propan-2-yl)-2-(trifluoromethyl)benzamide] | 50 to 100 | 50 to 100 |  |
| Cc1cc(/C(F)=C/C(c2cc(Cl)c(Cl)c(Cl)c2)C(F)(F)F)ccc1C(=O)N[C@H](C)CSCC(F)(F)F (stereo partly drawn) [F4, 2-Methyl-4-((Z)-1,4,4,4-tetrafluoro-3-(3,4,5-trichlorophenyl)but-1-en-1-yl)-N—((R)-1-((2,2,2-trifluoroethyl)thio)propan-2-yl)benzamide] | 50 to 100 | 50 to 100 | mortality at 0.05 µg/cm2 ([2]; 0.05 μg/cm^2, Table CD2 comparative data, read-out: Percent control (or mortality) BAW): 67%; mortality at 0.5 µg/cm2 ([2]; 0.5 μg/cm^2, Table CD2 comparative data, read-out: Percent control (or mortality) BAW): 100%; mortality at 5 µg/cm2 ([2]; 5 μg/cm^2, Table CD2 comparative data, read-out: Percent control (or mortality) BAW): 100%; mortality at 0.05 µg/cm2 ([3]; 0.05 μg/cm^2, Table CD2 comparative data, read-out: Percent control (or mortality) CL): 7%; mortality at 0.5 µg/cm2 ([3]; 0.5 μg/cm^2, Table CD2 comparative data, read-out: Percent control (or mortality) CL): 60%; mortality at 5 µg/cm2 ([3]; 5 μg/cm^2, Table CD2 comparative data, read-out: Percent control (or mortality) CL): 100% |
| C[C@H](CS(=O)(=O)CC(F)F)NC(=O)c1ccc(/C(F)=C/C(c2cc(Cl)c(Cl)c(Cl)c2)C(F)(F)F)cc1C(F)(F)F (stereo partly drawn) [F129, N—((R)-1-((2,2-difluoroethyl)sulfonyl)propan-2-yl)-4-((Z)-1,4,4,4-tetrafluoro-3-(3,4,5-trichlorophenyl)but-1-en-1-yl)-2-(trifluoromethyl)benzamide] | 50 to 100 | 50 to 100 |  |
| O=C(NCCSCC(F)(F)F)c1ccc(/C(F)=C/C(c2cc(Cl)c(Cl)c(Cl)c2)C(F)(F)F)cc1C(F)(F)F (stereo not shown) [F51, (Z)-4-(1,4,4,4-tetrafluoro-3-(3,4,5-trichlorophenyl)but-1-en-1-yl)-N-(2-((2,2,2-trifluoroethyl)thio)ethyl)-2-(trifluoromethyl)benzamide] | 50 to 100 | 50 to 100 |  |
| C=C(C)c1cc(C(/C=C(\F)c2ccc(C(=O)N[C@H](C)CS(=O)(=O)CC(F)(F)F)c(C(F)(F)F)c2)C(F)(F)F)cc(Cl)c1Cl (stereo partly drawn) [F114, 4-((Z)-3-(3,4-Dichloro-5-(prop-1-en-2-yl)phenyl)-1,4,4,4-tetrafluorobut-1-en-1-yl)-N—((R)-1-((2,2,2-trifluoroethyl)sulfonyl)propan-2-yl)-2-(trifluoromethyl)benzamide] | 50 to 100 | 50 to 100 |  |
| C[C@H](CSCC(F)(F)F)NC(=O)c1ccc(/C(F)=C/C(c2cc(F)c(Cl)c(C(F)(F)F)c2)C(F)(F)F)cc1C(F)(F)F (stereo partly drawn) [F117, 4-((Z)-3-(4-Chloro-3-fluoro-5-(trifluoromethyl)phenyl)-1,4,4,4-tetrafluorobut-1-en-1-yl)-N—((R)-1-((2,2,2-trifluoroethyl)thio)propan-2-yl)-2-(trifluoromethyl)benzamide] | 50 to 100 | 50 to 100 |  |
| C[C@H](C[S+]([O-])CC(F)(F)F)NC(=O)c1ccc(/C(F)=C/C(c2cc(Cl)c(Cl)c(Cl)c2)C(F)(F)F)cc1Cl (stereo partly drawn) [F12, 2-Chloro-4-((Z)-1,4,4,4-tetrafluoro-3-(3,4,5-trichlorophenyl)but-1-en-1-yl)-N-((2R)-1-((2,2,2-trifluoroethyl)sulfinyl)propan-2-yl)benzamide] | 50 to 100 | 50 to 100 |  |
| C=Cc1cc(/C(F)=C/C(c2cc(Cl)c(Cl)c(Cl)c2)C(F)(F)F)ccc1C(=O)N[C@H](C)CS(=O)(=O)CC(F)(F)F (stereo partly shown) [F116] | 50 to 100 | 50 to 100 |  |
